Assays:
[1] = target: purified recombinant human GAC (GLS1) (Homo sapiens (Human), UniProt O94925); experiment: GLS1 Enzymatic Activity Assay (dual-coupled enzymatic assay, resorufin/Amplex UltraRed readout); format: biochemical;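 note: glutamate from GAC coupled via glutamate oxidase and peroxidase to resorufin, read as fluorescence (ex 530, em 590 nm) kinetically or at 20 min, four-parameter logistic IC50 fit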
[2] = test system: A549 cells; experiment: Proliferation Assay (A549 viability, Cell Titer Fluor, 72 hours); format: cell-based; conditions: Homo sapiens, A549, 72 h
Procedure, shortened: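 A549 cells seeded at 1000 cells/well, rested 24 h, then exposed to compound in 0.5% DMSO for 72 h at 37 °C. Viability read by Cell Titer Fluor fluorescence; IC50 from four-parameter logistic fit.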

Sequence of purified recombinant human GAC (GLS1) (O94925 other isoform, or with tags, fused parts or gaps): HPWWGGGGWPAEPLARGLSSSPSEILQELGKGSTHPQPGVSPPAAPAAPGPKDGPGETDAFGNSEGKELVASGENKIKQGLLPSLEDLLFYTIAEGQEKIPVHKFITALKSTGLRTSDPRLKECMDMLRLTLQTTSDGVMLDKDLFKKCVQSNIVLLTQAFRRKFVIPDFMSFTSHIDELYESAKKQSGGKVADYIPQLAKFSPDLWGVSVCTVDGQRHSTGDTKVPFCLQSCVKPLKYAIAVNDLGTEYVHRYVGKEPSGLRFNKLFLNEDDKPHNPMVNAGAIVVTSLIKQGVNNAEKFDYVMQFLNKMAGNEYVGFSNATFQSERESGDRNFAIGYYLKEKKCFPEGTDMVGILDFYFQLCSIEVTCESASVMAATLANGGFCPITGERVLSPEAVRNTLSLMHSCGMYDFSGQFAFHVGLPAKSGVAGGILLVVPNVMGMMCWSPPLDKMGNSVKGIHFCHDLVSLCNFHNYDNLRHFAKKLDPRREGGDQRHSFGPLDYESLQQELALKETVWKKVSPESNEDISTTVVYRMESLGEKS

| Structure (SMILES) | IC50 [1] [nM] | EC50 [2] [nM] |
| --- | --- | --- |
| O=C(NCc1cc(C(F)(F)F)ccn1)c1cn(CCCCn2cc(C(=O)NCC3CCOC3)nn2)nn1 (centres unmarked) [Example 86] | 500 to 5000 | > 5000 |
| CNC(=O)c1cn(CCCCc2ccc(NC(=O)CC3CCCC3)nn2)nn1 [Example 548, 1-{4-[6-(2-cyclopentylacetamido)pyridazin-3-yl]butyl}-N-methyl-1H-1,2,3-triazole-4-carboxamide] | 100 to 500 | 500 to 5000 |
| O=C(Cc1cccc(F)n1)Nc1nnc(CCC(F)Cn2cc(C(=O)NCc3cc(OC(F)(F)F)ccc3F)nn2)s1 (centres unmarked) [Example 592, 1-(2-fluoro-4-(5-(2-(6-fluoropyridin-2-yl)acetamido)-1,3,4-thiadiazol-2-yl)butyl)-N-(2-fluoro-5-(trifluoromethoxy)benzyl)-1H-1,2,3-triazole-4-carboxamide] | < 100 | < 100 |
| O=C(Cc1cccc(OC(F)(F)F)c1)Nc1cn(CC(F)CCn2cc(C(=O)NCc3ccc(C(F)(F)F)nc3)nn2)nn1 (centres unmarked) [Example 411, 1-[3-fluoro-4-(4-{2-[3-(trifluoromethoxy)phenyl]acetamido}-1H-1,2,3-triazol-1-yl)butyl]-N-{[6-(trifluoromethyl)pyridin-3-yl]methyl}-1H-1,2,3-triazole-4-carboxamide] | < 100 | < 100 |
| O=C(Cc1cccc(OC(F)(F)F)c1)Nc1ccc(CCCCc2nnc(C(=O)NCc3ccccn3)s2)nn1 [Example 32, N-(pyridin-2-ylmethyl)-5-[4-(6-{2-[3-(trifluoromethoxy)phenyl]acetamido}pyridazin-3-yl)butyl]-1,3,4-thiadiazole-2-carboxamide] | < 100 | < 100 |
| O=C(NCc1cccc(OC(F)(F)F)c1)c1cn(CCC(F)Cn2cc(C(=O)NCc3cccc(C(F)(F)F)n3)nn2)nn1 (centres unmarked) [Example 436, 1-{2-fluoro-4-[4-({[3-(trifluoromethoxy)phenyl]methyl}carbamoyl)-1H-1,2,3-triazol-1-yl]butyl}-N-{[6-(trifluoromethyl)pyridin-2-yl]methyl}-1H-1,2,3-triazole-4-carboxamide] | < 100 | < 100 |
| O=C(NCc1cc(OC(F)(F)F)ccc1F)c1cn(CCC(F)Cn2cc(C(=O)NCc3cncc(C(F)(F)F)c3)nn2)nn1 (centres unmarked) [Example 479, 1-{2-fluoro-4-[4-({[2-fluoro-5-(trifluoromethoxy)phenyl]methyl}carbamoyl)-1H-1,2,3-triazol-1-yl]butyl}-N-{[5-(trifluoromethyl)pyridin-3-yl]methyl}-1H-1,2,3-triazole-4-carboxamide] | < 100 | < 100 |
| O=C(NCc1ccc(C(F)(F)F)cn1)c1cn(CCC(F)Cn2cc(C(=O)NCc3cc(C(F)(F)F)ccn3)nn2)nn1 (centres unmarked) [Example 156, 1-{2-fluoro-4-[4-({[5-(trifluoromethyl)pyridin-2-yl]methyl}carbamoyl)-1H-1,2,3-triazol-1-yl]butyl}-N-{[4-(trifluoromethyl)pyridin-2-yl]methyl}-1H-1,2,3-triazole-4-carboxamide] | < 100 | < 100 |
| CCNC(=O)c1cn(CCC(F)Cn2cc(C(=O)NCc3cc(C(F)(F)F)ccn3)nn2)nn1 (centres unmarked) [Example 154, N-ethyl-1-{3-fluoro-4-[4-({[4-(trifluoromethyl)pyridin-2-yl]methyl}carbamoyl)-1H-1,2,3-triazol-1-yl]butyl}-1H-1,2,3-triazole-4-carboxamide] | 500 to 5000 | 500 to 5000 |
| Cc1ccc(CC(=O)Nc2cn(CCCCn3cc(C(=O)NCc4cccc(OC(F)(F)F)c4)nn3)nn2)cn1 [Example 313, 1-(4-{4-[2-(6-methylpyridin-3-yl)acetamido]-1H-1,2,3-triazol-1-yl}butyl)-N-{[3-(trifluoromethoxy)phenyl]methyl}-1H-1,2,3-triazole-4-carboxamide] | < 100 | < 100 |
| CC(C)(NC(=O)c1cn(CCCCc2nnc(NC(=O)Cc3cccc(OC(F)(F)F)c3)s2)nn1)c1ccccc1 [Example 18, N-(2-phenylpropan-2-yl)-1-[4-(5-{2-[3-(trifluoromethoxy)phenyl]acetamido}-1,3,4-thiadiazol-2-yl)butyl]-1H-1,2,3-triazole-4-carboxamide] | 100 to 500 | 100 to 500 |
| CC(NC(=O)c1cn(CCCCn2cc(C(=O)NCc3cc(C(F)(F)F)ccn3)nn2)nn1)c1cccc(OC(F)(F)F)c1 (centres unmarked) [Example 109, 1-{4-[4-({1-[3-(trifluoromethoxy)phenyl]ethyl}carbamoyl)-1H-1,2,3-triazol-1-yl]butyl}-N-{[4-(trifluoromethyl)pyridin-2-yl]methyl}-1H-1,2,3-triazole-4-carboxamide] | < 100 | 100 to 500 |
| O=C(NCc1ccc(C(F)(F)F)cn1)c1cn(CCC(F)Cn2cc(C(=O)NCc3cccc(OC(F)(F)F)c3)nn2)nn1 (centres unmarked) [Example 433, 1-{2-fluoro-4-[4-({[5-(trifluoromethyl)pyridin-2-yl]methyl}carbamoyl)-1H-1,2,3-triazol-1-yl]butyl}-N-{[3-(trifluoromethoxy)phenyl]methyl}-1H-1,2,3-triazole-4-carboxamide] | < 100 | < 100 |
| Cc1ccc(CNC(=O)c2cn(CCCCn3cc(NC(=O)CC4CC4)nn3)nn2)cn1 [Example 300, 1-{4-[4-(2-cyclopropylacetamido)-1H-1,2,3-triazol-1-yl]butyl}-N-[(6-methylpyridin-3-yl)methyl]-1H-1,2,3-triazole-4-carboxamide] | 500 to 5000 | > 5000 |
| Cc1ccc(CNC(=O)c2nnc(CCC(F)Cn3cc(C(=O)NCc4cc(OC(F)(F)F)ccc4F)nn3)s2)cn1 (centres unmarked) [Example 443, 5-{3-fluoro-4-[4-({[2-fluoro-5-(trifluoromethoxy)phenyl]methyl}carbamoyl)-1H-1,2,3-triazol-1-yl]butyl}-N-[(6-methylpyridin-3-yl)methyl]-1,3,4-thiadiazole-2-carboxamide] | < 100 | < 100 |
| O=C(Cc1cccc(OC(F)(F)F)c1)Nc1ccc(CCCCn2cc(C(=O)NCC3COC3)nn2)nn1 [Example 550, N-(oxetan-3-ylmethyl)-1-[4-(6-{2-[3-(trifluoromethoxy)phenyl]acetamido}pyridazin-3-yl)butyl]-1H-1,2,3-triazole-4-carboxamide] | < 100 | 100 to 500 |
| O=C(Cc1cccc(OC(F)(F)F)c1)Nc1nnc(CCCCn2cc(C(=O)NCCO)nn2)s1 [Example 17, N-(2-hydroxyethyl)-1-[4-(5-{2-[3-(trifluoromethoxy)phenyl]acetamido}-1,3,4-thiadiazol-2-yl)butyl]-1H-1,2,3-triazole-4-carboxamide] | 100 to 500 | 100 to 500 |
| CC(=O)Nc1ccc(CCCCn2cc(C(=O)NCc3cc(C(F)(F)F)ccn3)nn2)nn1 [Example 175, 1-[4-(6-acetamidopyridazin-3-yl)butyl]-N-{[4-(trifluoromethyl)pyridin-2-yl]methyl}-1H-1,2,3-triazole-4-carboxamide] | < 100 | 100 to 500 |
| CC1(C)Oc2ccc(CNC(=O)c3cn(CCCCn4cc(C(=O)NCc5cc(C(F)(F)F)ccn5)nn4)nn3)cc2O1 [Example 137, 1-[4-(4-{[(2,2-dimethyl-2H-1,3-benzodioxol-5-yl)methyl]carbamoyl}-1H-1,2,3-triazol-1-yl)butyl]-N-{[4-(trifluoromethyl)pyridin-2-yl]methyl}-1H-1,2,3-triazole-4-carboxamide] | < 100 | < 100 |
